# Patent US20060069132A1, “Azolecarboxamide herbicides” (priority 2004, published 2006)
# Tests used:
# [1] = system: cocklebur; experiment: Test C pre-/postemergence herbicide test; assay type: in vivo, Xanthium strumarium; details: for Cocklebur plant response rating: 500 g ai/ha
# How it was run: (§1)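 Preemergence: seeds planted and treated with compound in non-phytotoxic solvent with surfactant; postemergence: plants at 2 to 18 cm (1- to 4-leaf stage) sprayed likewise. Kept in greenhouse 12 to 14 days, then visually rated against controls, 0 (no effect) to 100 (complete control).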
# [2] = system: goosegrass; experiment: Test C pre-/postemergence herbicide test; assay type: in vivo, Eleusine indica; details: for Goosegrass plant response rating: 500 g ai/ha
# How it was run: as §1
# [3] = system: pigweed; experiment: Test C pre-/postemergence herbicide test; assay type: in vivo, Amaranthus retroflexus; details: for Pigweed plant response rating: 500 g ai/ha
# How it was run: as §1
# [4] = system: bermudagrass; experiment: Test C pre-/postemergence herbicide test; assay type: in vivo, Cynodon dactylon
# How it was run: as §1
# [5] = system: Surinam grass; experiment: Test C pre-/postemergence herbicide test; assay type: in vivo, Urochloa decumbens; details: for Surinam Grass plant response rating: 500 g ai/ha
# How it was run: as §1
# [6] = system: velvetleaf; experiment: Test A pre-/postemergence herbicide test; assay type: in vivo, Abutilon theophrasti; details: for Plant response rating, Velvetleaf: Postemergence; for Velvetleaf plant response rating: Preemergence
# How it was run: (§2)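 Sandy loam soil given preemergence directed spray; plants at 2 to 10 cm, one- to two-leaf stage, sprayed to runoff postemergence, compounds in non-phytotoxic solvent with surfactant. Injury rated visually versus untreated controls after about ten greenhouse days, 0 (no effect) to 100 (complete control); dash means not tested.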
# [7] = system: morningglory; experiment: Test A pre-/postemergence herbicide test; assay type: in vivo, Ipomoea spp.; details: for Plant response rating, Morningglory: Postemergence; for Morningglory plant response rating: Preemergence
# How it was run: as §2
# [8] = system: smallflower umbrella sedge; experiment: Test C flooded paddy test; assay type: in vivo, Cyperus difformis; details: for Plant response rating, Sedge, Umbrella: visual rating after 12 to 14 days
# [9] = system: johnsongrass; experiment: Test C pre-/postemergence herbicide test; assay type: in vivo, Sorghum halepense; details: for Johnsongrass plant response rating: 500 g ai/ha
# How it was run: as §1
# [10] = system: ducksalad; experiment: Test C flooded paddy test; assay type: in vivo, Heteranthera limosa; details: for Plant response rating, Ducksalad: visual rating after 12 to 14 days
# [11] = system: soybean; experiment: Test C pre-/postemergence herbicide test; assay type: in vivo, Glycine max; details: for Soybean plant response rating: 500 g ai/ha
# How it was run: as §1
# [12] = 125 g ai/ha, scale 0-100, preemergence
# [13] = 250 g ai/ha, scale 0 to 100 (0 no effect, 100 complete control), visual, 12 to 14 days, preemergence
# [14] = Postemergence, 125 g ai/ha, scale 0 to 100, 0 no effect, 100 complete control
# [15] = Postemergence, 250 g ai/ha, scale 0 to 100, 0 no effect, 100 complete control
# [16] = Preemergence, scale 0 to 100, 0 no effect, 100 complete control
# [17] = postemergence, 62 g ai/ha, scale 0 to 100
# [18] = postemergence, 125 g ai/ha, scale 0 to 100
# [19] = 500 g ai/ha, 0 to 100 scale, 0 no effect, 100 complete control
# [20] = 2000 g ai/ha, 0 to 100 scale, 0 no effect, 100 complete control
# [21] = 500 g ai/ha, visual rating, 0 to 100 scale (0 no effect, 100 complete control)
# [22] = 62 g ai/ha, scale 0 to 100 (0 no effect, 100 complete control)
# [23] = 125 g ai/ha, scale of 0 to 100, 0 is no effect, 100 is complete control
# [24] = 250 g ai/ha, scale 0 to 100 (0 no effect, 100 complete control)
# [25] = 500 g ai/ha, scale 0 to 100 (0 no effect, 100 complete control)
smiles,measurement,setting,value
C=Cn1nc(C(C)(C)C)cc1C(=O)Nc1cccc(C(=O)N(CC)CC)c1 [Compound 34],"Plant response rating (0 = no effect, 100 = complete control), Cocklebur","[1]; 62 g ai/ha, preemergence",0
same,"Plant response rating, Cocklebur",[1]; [12],0
same,"Plant response rating, Cocklebur",[1]; [13],0
same,Cocklebur plant response rating,"[1]; Postemergence, scale 0 to 100",70
same,"Plant response rating, Cocklebur",[1]; [14],20
same,"Plant response rating, Cocklebur",[1]; [15],50
same,Cocklebur plant response rating,[1]; [16],0
same,"Plant response rating, Cocklebur",[1]; [17],20
same,"Plant response rating (0 = no effect, 100 = complete control), Goosegrass","[2]; 62 g ai/ha, preemergence",20
same,"Plant response rating, Goosegrass",[2]; [12],80
same,"Plant response rating, Goosegrass",[2]; [13],100
same,Goosegrass plant response rating,"[2]; Postemergence, scale 0 to 100",40
same,"Plant response rating, Goosegrass",[2]; [14],40
same,"Plant response rating, Goosegrass",[2]; [15],40
same,Goosegrass plant response rating,[2]; [16],100
same,"Plant response rating, Goosegrass",[2]; [17],30
same,"Plant response rating (0 = no effect, 100 = complete control), Pigweed","[3]; 62 g ai/ha, preemergence",100
same,"Plant response rating, Pigweed",[3]; [13],100
same,Pigweed plant response rating,"[3]; Postemergence, scale 0 to 100",100
same,"Plant response rating, Pigweed",[3]; [15],100
same,Pigweed plant response rating,[3]; [16],100
same,"Plant response rating, Pigweed",[3]; [18],100
same,"Plant response rating, Pigweed",[3]; [17],100
same,"Plant response rating (0 = no effect, 100 = complete control), Bermudagrass","[4]; 62 g ai/ha, preemergence",20
same,"Plant response rating, Bermudagrass",[4]; [12],50
same,"Plant response rating, Bermudagrass",[4]; [13],90
same,Bermudagrass plant response rating,"[4]; Postemergence, 500 g ai/ha, scale 0 to 100",50
same,"Plant response rating, Bermudagrass",[4]; [14],40
same,Bermudagrass plant response rating,"[4]; Postemergence, 250 g ai/ha, scale 0 to 100",50
same,Bermudagrass plant response rating,"[4]; Preemergence, 500 g ai/ha, scale 0 to 100, 0 no effect, 100 complete control",100
same,"Plant response rating, Bermudagrass",[4]; [17],10
same,"Plant response rating (0 = no effect, 100 = complete control), Surinam Grass","[5]; 62 g ai/ha, preemergence",10
same,"Plant response rating, Surinam Grass",[5]; [13],60
same,Surinam Grass plant response rating,"[5]; Postemergence, scale 0 to 100",70
same,"Plant response rating, Surinam Grass",[5]; [15],50
same,Surinam Grass plant response rating,[5]; [16],70
same,"Plant response rating, Surinam Grass",[5]; [18],30
same,"Plant response rating, Surinam Grass",[5]; [17],20
same,"Plant response rating, Velvetleaf",[6]; [19],20
same,"Plant response rating, Velvetleaf",[6]; [20],30
same,Velvetleaf plant response rating,[6]; [21],20
same,Velvetleaf plant response rating,[6]; [20],25
same,"Plant response rating, Morningglory",[7]; [19],10
same,"Plant response rating, Morningglory",[7]; [20],20
same,Morningglory plant response rating,[7]; [21],35
same,Morningglory plant response rating,[7]; [20],50
same,"Sedge, Umbrella plant response rating",[8]; [22],50
same,"Sedge, Umbrella plant response rating",[8]; [23],80
same,"Plant response rating, Sedge, Umbrella",[8]; [24],80
same,"Plant response rating, Sedge, Umbrella",[8]; [25],90
same,"Plant response rating (0 = no effect, 100 = complete control), Johnsongrass","[9]; 62 g ai/ha, preemergence",50
same,"Plant response rating, Johnsongrass",[9]; [12],80
same,"Plant response rating, Johnsongrass",[9]; [13],100
same,Johnsongrass plant response rating,"[9]; Postemergence, scale 0 to 100",80
same,"Plant response rating, Johnsongrass",[9]; [14],70
same,"Plant response rating, Johnsongrass",[9]; [15],70
same,Johnsongrass plant response rating,[9]; [16],100
same,"Plant response rating, Johnsongrass",[9]; [17],70
same,Ducksalad plant response rating,[10]; [22],15
same,Ducksalad plant response rating,[10]; [23],25
same,"Plant response rating, Ducksalad",[10]; [24],25
same,"Plant response rating, Ducksalad",[10]; [25],75
same,"Plant response rating (0 = no effect, 100 = complete control), Soybean","[11]; 62 g ai/ha, preemergence",0
same,"Plant response rating, Soybean",[11]; [13],0
same,Soybean plant response rating,"[11]; Postemergence, scale 0 to 100",80
same,"Plant response rating, Soybean",[11]; [15],80
same,Soybean plant response rating,[11]; [16],0
same,"Plant response rating, Soybean",[11]; [18],80
same,"Plant response rating, Soybean",[11]; [17],70
